Laboratory results from patent US7629318B2, “Immunosuppressant compounds, methods and uses related thereto” (priority 2002, dated 2009).
Numbered stars: 1 amine (or outer) side, 2 acyl side, 3 side chain; on linkers, the order of the positions; unused ones are H or OH. Square brackets hold non-standard residues; d marks the D form. Peptide text beside a SMILES is read from it. * marks the point of attachment. ξ: configuration not given here. Gly(1-amidinopiperidin-4-yl) = N=C(N)N1CCC([C@H](N)C(=O)O)CC1; X1 = CC(C)c1oc([C@H](CO)N[*:1])nc1C(=O)[*:2]; Pro(3R-Ph) = O=C(O)[C@H]1NCC[C@@H]1c1ccccc1; Tic = O=C(O)[C@@H]1Cc2ccccc2CN1; Cha = N[C@@H](CC1CCCCC1)C(=O)O; NMe(benzyl) = CN(Cc1ccccc1)*; ξDisc = O=C(O)C1NCc2ccccc21; Nle = CCCC[C@H](N)C(=O)O

Legend:
[1] = target: Cathepsin D (EC 3.4.23.5 from bovine spleen) (Bos taurus, UniProt P80209)
[2] = Stability of compounds in mouse blood plasma; type: in vitro ADME
In short: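 Compounds at 5 μM final in rat, mouse or human plasma, incubated at 37 °C and sampled at 0, 6 and 24 h. Proteins precipitated with acetonitrile and the supernatant dried and reconstituted in 50% acetonitrile/0.1% TFA. PBS controls run for unstable compounds.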

[3] = target: T1, LG2 (DR1: DRA1*0101 DRB1*0101) cells (Homo sapiens, UniProt P01903+P01911, A100R/D57E/F55L/F60I/F76Y/I96L/L162R/M171V/P40L/Q125E/R42F/V115G/Y59C); assay: Competitive binding to MHC II proteins expressed on LG2 cells; type: cell-based; conditions: Cell binding IC50 (uM) LG2 (0101), LG2 (0101)
T1 construct: MHC II Proteins Expressed on PRIESS and LG2 Cells; endogenous in cells; host or cells: LG2 cells
In short: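 LG2 or Priess cells incubated 4 h at 37° C, 6% CO2 in 1% FCS with 10-fold compound dilutions (series 16 nM-1615 μM) and biotinylated-detectable indicator peptide (16 μM solution added). Lysates captured 2 h at 4° C; bound peptide detected via europium-streptavidin time-resolved fluorescence (ex 340, em 613 nm).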

[4] = target: DR1 (DRA1*0101 DRB1*0101) (Homo sapiens, UniProt P01903+P01911, A100R/D57E/F55L/F60I/F76Y/I96L/L162R/M171V/P40L/Q125E/R42F/V115G/Y59C); assay: Competitive binding to MHC-II protein DR1; conditions: Protein binding IC50 (nM) 0101, 0101
In short: (§1)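 Each MHC-II allele incubated with compound 16 hours at room temperature in duplicate; controls lacked compound, or both compound and MHC-II. Complexes captured 2 h at 4 °C, bound biotinylated peptide detected via europium-streptavidin and DELFIA enhancement, time-resolved fluorescence read at ex 340/em 613 (615) nm.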

[5] = target: DR4Dw4 (DRA1*0101 DRB1*0401) (Homo sapiens, UniProt P01903+P01911, A100K/A169T/F76Y/I96L/K127E/L162R/M171V/N62H/P40V/Q125Y/R42H/S133A/S149N/S66Y/V115G/V209L/W38E); assay: Competitive binding to MHC-II protein DR4Dw4
In short: as §1

Q: With CSCC[C@H](NC(=O)C1c2ccccc2CN1C(=O)[C@@H](NC(=O)[C@H](CC1CCCCC1)NC(C)=O)C1CCN(C(=N)N)CC1)C(N)=O (stereo partly drawn) [Compound P66-1, Ac-Cha-Gpg-Disc-Met-NH2] (Ac-[Cha][Gly(1-amidinopiperidin-4-yl)][ξDisc]M-NH2) as the molecule, how does the “Stability (Arbitrary units) Cath D 4 h” value [1] read?
A: The value was 101 Arbitrary units.

Q: What about the “Stability (Arbitrary units) Mouse 6 h” value [2] of the same molecule?
A: Its value is 115 Arbitrary units.

Q: And the “Stability (Arbitrary units) Mouse 24 h” value [2]?
A: Its value is 112 Arbitrary units.

Q: What about the IC50 [3] of the same molecule?
A: The IC50 was 6 µM.

Q: What about the IC50 [4] of the same molecule?
A: Its IC50 is 290 nM.

Q: What about the IC50 [5] of the same molecule?
A: Its IC50 is 290 nM.

Q: For CSCC[C@H](NC(=O)[C@@H]1Cc2ccccc2CN1C(=O)[C@H](CCCNC(=N)N)NC(=O)[C@H](CC1CCCCC1)NC(C)=O)C(=O)N1CC[C@H](c2ccccc2)[C@H]1C(N)=O [Compound P31, Ac-Cha-Arg-Tic-Met-βPhPro-NH2] (Ac-[Cha]R[Tic]M[Pro(3R-Ph)]-NH2), which “Stability (Arbitrary units) Cath D 4 h” value [1] is on record?
A: Its value is 95 Arbitrary units.

Q: What about the “Stability (Arbitrary units) Mouse 6 h” value [2] of the same molecule?
A: The value was 86 Arbitrary units.

Q: What about the “Stability (Arbitrary units) Mouse 24 h” value [2] of the same molecule?
A: The value was 56 Arbitrary units.

Q: What about the IC50 [3] of the same molecule?
A: Its IC50 is 8.5 µM.

Q: What about the IC50 [4] of the same molecule?
A: Its IC50 is 290 nM.

Q: What about the IC50 [5] of the same molecule?
A: The IC50 was 280 nM.

Q: For CCCC[C@H](NC(=O)C1c2ccccc2CN1C(=O)[C@@H](NC(=O)[C@H](CC1CCCCC1)NC(C)=O)C1CCN(C(=N)N)CC1)C(=O)N1CC[C@H](c2ccccc2)[C@H]1C(=O)N[C@@H](CO)c1nc(C(=O)N(C)C)c(C(C)C)o1 (stereo partly drawn) [Compound P81-1] (Ac-[Cha][Gly(1-amidinopiperidin-4-yl)][ξDisc][Nle][Pro(3R-Ph)][X1]-NMe2), which “Stability (Arbitrary units) Cath D 4 h” value [1] is on record?
A: The value was 106 Arbitrary units.

Q: What about the “Stability (Arbitrary units) Mouse 6 h” value [2] of the same molecule?
A: Its value is 87 Arbitrary units.

Q: What about the “Stability (Arbitrary units) Mouse 24 h” value [2] of the same molecule?
A: The value was 84 Arbitrary units.

Q: And the IC50 [3]?
A: The IC50 was 5 µM.

Q: And the IC50 [4]?
A: The IC50 was 220 nM.

Q: What about the IC50 [5] of the same molecule?
A: Its IC50 is 260 nM.

Q: Which “Stability (Arbitrary units) Cath D 4 h” value [1] does the source give for CSCC[C@H](NC(=O)[C@@H]1Cc2ccccc2CN1C(=O)[C@@H](NC(=O)[C@H](CC1CCCCC1)NC(C)=O)C1CCN(C(=N)N)CC1)C(=O)N1CC[C@H](c2ccccc2)[C@H]1C(=O)N[C@@H](CO)c1nc(C(=O)N(C)C)c(C(C)C)o1 [Compound P60, Ac-Cha-Gpg-Tic-Met-βPhPro-[S(oxaz)L]-NMe2] (Ac-[Cha][Gly(1-amidinopiperidin-4-yl)][Tic]M[Pro(3R-Ph)][X1]-NMe2) here?
A: Its value is 108 Arbitrary units.

Q: What about the “Stability (Arbitrary units) Mouse 6 h” value [2] of the same molecule?
A: Its value is 111 Arbitrary units.

Q: What about the “Stability (Arbitrary units) Mouse 24 h” value [2] of the same molecule?
A: Its value is 95 Arbitrary units.

Q: What about the IC50 [3] of the same molecule?
A: Its IC50 is 1.5 µM.

Q: And the IC50 [4]?
A: The IC50 was 250 nM.

Q: And the IC50 [5]?
A: The IC50 was 230 nM.

Q: For CCCC[C@H](NC(=O)C1c2ccccc2CN1C(=O)[C@@H](NC(=O)[C@H](CC1CCCCC1)NC(C)=O)C1CCN(C(=N)N)CC1)C(=O)N(C)Cc1ccccc1 (single isomer, unassigned) [Compound P78-1], which “Stability (Arbitrary units) Cath D 4 h” value [1] is on record?
A: The value was 104 Arbitrary units.

Q: And the “Stability (Arbitrary units) Mouse 6 h” value [2]?
A: Its value is 93 Arbitrary units.

Q: And the “Stability (Arbitrary units) Mouse 24 h” value [2]?
A: Its value is 18 Arbitrary units.

Q: What about the IC50 [3] of the same molecule?
A: The IC50 was 4.6 µM.

Q: What about the IC50 [4] of the same molecule?
A: Its IC50 is 550 nM.

Q: What about the IC50 [5] of the same molecule?
A: The IC50 was 2300 nM.

Q: With CCCC[C@H](NC(=O)C1c2ccccc2CN1C(=O)[C@H](CCCNC(=N)N)NC(=O)[C@H](CC1CCCCC1)NC(C)=O)C(=O)N(C)Cc1ccccc1 (stereo partly drawn) [Compound P72-1, Ac-Cha-Arg-Disc-Nle-N(Me)Bn] (Ac-[Cha]R[ξDisc][Nle]-{NMe(benzyl)}) as the molecule, how does the “Stability (Arbitrary units) Cath D 4 h” value [1] read?
A: The value was 101 Arbitrary units.

Q: What about the “Stability (Arbitrary units) Mouse 6 h” value [2] of the same molecule?
A: Its value is 97 Arbitrary units.

Q: What about the “Stability (Arbitrary units) Mouse 24 h” value [2] of the same molecule?
A: The value was 75 Arbitrary units.

Q: What about the IC50 [3] of the same molecule?
A: The IC50 was 12 µM.

Q: And the IC50 [4]?
A: Its IC50 is 1200 nM.

Q: And the IC50 [5]?
A: The IC50 was 5200 nM.

Q: What does the source list for CSCC[C@H](NC(=O)C1c2ccccc2CN1C(=O)[C@@H](NC(=O)[C@H](CC1CCCCC1)NC(C)=O)C1CCN(C(=N)N)CC1)C(=O)N1CC[C@H](c2ccccc2)[C@H]1C(=O)N[C@@H](CO)c1nc(C(=O)N(C)C)c(C(C)C)o1 (stereo partly drawn) [Compound P41-1, Ac-Cha-Gpg-Disc-Met-βPhPro-[S(oxaz)L]-NMe2] (Ac-[Cha][Gly(1-amidinopiperidin-4-yl)][ξDisc]M[Pro(3R-Ph)][X1]-NMe2)?
A: Stability (Arbitrary units) Cath D 4 h [1]: 103 Arbitrary units; Stability (Arbitrary units) Mouse 6 h [2]: 100 Arbitrary units; Stability (Arbitrary units) Mouse 24 h [2]: 111 Arbitrary units; IC50 [3]: 3.8 µM; IC50 [4]: 160 nM; IC50 [5]: 200 nM
